According to article PMC10857328, “Utilization of Biopolymer-Based Lutein Emulsion as an Effective Delivery System to Improve Lutein Bioavailability in Neonatal Rats” (Nutrients, 2024):

Columns and labels:
[1] = Acute dosing study: tissue lutein profiles; format: in vivo, neonatal Sprague-Dawley rats; conditions: single oral dose, 10 mg/kg, free lutein or emulsion
Experimental: To determine the bioavailability of lutein in neonatal Sprague-Dawley rats, an acute dosing study was conducted. The procedure was approved by the Institutional Animal Care and Use Committee of the University of Alabama (Number: 21-08-4864, 23 September 2021). On postnatal day 10 (P10), neonatal rats were randomly selected from litters and received a single dose of either free lutein (i.e., lutein ester dissolved in olive oil) or lutein emulsion, both containing 10 mg/kg body weight of lutein. The dose was administered to the pup’s mouth via a pipette. The concentration of lutein ester in the oil phase was 0.004 g/mL. The lutein dosage was selected based on our pilot study and previous studies. It is higher than the dosage used in human newborns but is considered acceptable and safe to be used in pharmacokinetic studies in rodent models. At 0.5 h, 1 h, 2 h, 4 h, 6 h, 12 h, and 24 h after dosing, pups (n = 3/time point/group) were euthanized, and blood, liver, spleen, brain, and eye were collected. Serum was obtained by centrifuging blood samples and tissues were stored at −80 °C until time of analysis. A group of rat pups (n = 3) not receiving treatments were used to measure the baseline lutein concentrations. Throughout the study, maternal rats consumed a purified diet with no lutein (D19120501, Research Diets Inc, New Brunswick, NJ, USA) (Table 1).
Serum and tissue lutein concentration was determined using an ultra-performance liquid chromatography (UPLC) system (Waters, Milford, MA, USA) equipped with a photo-diode array detector (PDA)/MS/MS, according to our well-established methods with slight modification. As for the serum, 100 μL of the sample was incubated with 2 mL of 100% ethanol at room temperature for an hour for lipid extraction. For the tissues, ~0.1 g of the sample was weighed, homogenized, and incubated with 2 mL of 100% ethanol at room temperature for an hour. An amount of 1 mL of 5% (w/v) potassium hydroxide was added to the sample and incubated in a water bath at 60 °C for 45 min for saponification. […]

[2] = Daily dosing studies: body and tissue weights, observable illness; format: in vivo, neonatal Sprague-Dawley rats; conditions: daily oral administration, 2 mg/kg, P5-P18, both daily dosing studies
Experimental: To determine the effects of daily consumption of CTA-stabilized lutein emulsion on tissue lutein status, two daily dosing studies were conducted. The procedures were approved by the Institutional Animal Care and Use Committee of the University of Alabama (Number: 21-02-4373, 4 February 2021). For daily dosing study 1 (Figure 1B), on P5, rat pups (n = 8–9/group) were randomly selected from the litters and received an oral dose of either free lutein (i.e., lutein ester dissolved in olive oil) or lutein emulsion both containing 2 mg/kg body weight of lutein. […] Dosing was repeated daily until P18. The dosage was determined from previous research in both rodent and human newborns and was also established as an Acceptable Daily Intake for lutein by the Joint Food and Agricultural Organization/World Health Organization. On P19, pups were euthanized. Rats are known to wean between P19 and P21 [47]. Blood from vena cava, liver, spleen, brain, eye, kidney, lung, white adipose tissue (WAT), and brown adipose tissue (BAT) were collected. Blood samples were centrifuged to obtain serum. Serum and collected tissues were frozen at −80 °C until analysis.
To mimic the human dietary intake of lutein, daily dosing study 2 was conducted (Figure 1C). […]

## CC1=C[C@H](O)CC(C)(C)[C@H]1/C=C/C(C)=C/C=C/C(C)=C/C=C/C=C(C)/C=C/C=C(C)/C=C/C1=C(C)C[C@@H](O)CC1(C)C [lutein, Lutein]
[1]
  Earliest time point for lutein to be detectable in brain: 12 h
  Earliest time point for lutein to be detectable in eye: 24 h
  Earliest time point for lutein to be detectable in spleen: 6 h
[2]
  Observable illness in the pups: no observable illness
